# Experimental data as given in patent publication US12559529B2, “NPY2 receptor agonists” (Boehringer Ingelheim International GmbH, priority 2019, dated 2026).
# *1 amine or outer side, *2 acyl side, *3 side chain or, on linkers, in order; H or OH if unused. Where a SMILES comes first, the peptide text is derived from it. Side-chain parts run from the residue outwards. The star is where a group is joined. C18 diacid = O=C(O)CCCCCCCCCCCCCCCCC(=O)*; γGlu = O=C(O)[C@H](CCC(=O)[*:2])N[*:1]; Isovaleryl = CC(C)CC(=O)*; AEEA = NCCOCCOCC(=O)O
# Target: T1, Human Neuropeptide Y2 Receptor (Homo sapiens, UniProt P49146)
# T1 construct: purchased CHEMICON HTS066M
# T1 sequence (P49146 1-381): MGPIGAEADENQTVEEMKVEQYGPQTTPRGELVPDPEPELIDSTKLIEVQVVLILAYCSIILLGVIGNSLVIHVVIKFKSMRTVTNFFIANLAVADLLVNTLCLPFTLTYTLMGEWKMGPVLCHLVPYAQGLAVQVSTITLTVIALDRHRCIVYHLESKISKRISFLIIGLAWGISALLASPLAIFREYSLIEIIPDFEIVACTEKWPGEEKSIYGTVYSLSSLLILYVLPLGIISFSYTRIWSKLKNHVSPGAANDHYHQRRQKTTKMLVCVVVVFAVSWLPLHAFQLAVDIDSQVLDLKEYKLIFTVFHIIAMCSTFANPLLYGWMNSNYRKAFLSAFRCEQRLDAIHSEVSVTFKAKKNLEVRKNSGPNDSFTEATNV
# Assay: Radioligand binding competition assay (RLB)
# Details: Table 3; human 125I-PYY (1-36) 0.02 nM, Y2 receptor membranes; read-out: Ki
# Summary of the method: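 Competition binding on human Y2 receptor membranes, 0.5 μg protein/well, in 50 mM HEPES, 5 mM MgCl2, 1 mM CaCl2, pH 7.4, 0.2% ovalbumin; peptides diluted from 1 mM DMSO stocks.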
row,Ki [nM],SMILES
1,1.07,"CC(C)CC(=O)N[C@@H](C)C(=O)N1CCC[C@H]1C(=O)N[C@@H](C)C(=O)N[C@@H](CCCCNC(=O)COCCOCCNC(=O)COCCOCCNC(=O)CC[C@H](NC(=O)CCCCCCCCCCCCCCCCC(=O)O)C(=O)O)C(=O)N1CCC[C@H]1C(=O)N[C@@H](CCC(=O)O)C(=O)N[C@@H](C)C(=O)N[C@@H](CC(=O)O)C(=O)N[C@@H](C)C(=O)N[C@@H](CCC(=O)O)C(=O)N1CCC[C@H]1C(=O)N[C@@H](CCC(=O)O)C(=O)N[C@@H](CCC(=O)O)C(=O)N[C@@H](CC(C)C)C(=O)N[C@@H](CCC(N)=O)C(=O)N[C@@H](CCCNC(=N)N)C(=O)N[C@@H](Cc1ccc(O)cc1)C(=O)N[C@@H](Cc1ccc(O)cc1)C(=O)N[C@H](C(=O)N[C@@H](CO)C(=O)N[C@@H](CC(C)C)C(=O)N[C@@H](CCCNC(=N)N)C(=O)N[C@@H](Cc1c[nH]cn1)C(=O)N[C@@H](Cc1ccc(O)cc1)C(=O)N[C@@H](Cc1ccc(O)cc1)C(=O)N[C@@H](CC(N)=O)C(=O)N[C@@H](Cc1c[nH]c2ccccc12)C(=O)N[C@@H](CC(C)C)C(=O)N[C@H](C(=O)N[C@@H](CCCNC(=N)N)C(=O)N[C@@H](CCC(N)=O)C(=O)N[C@@H](CCCNC(=N)N)C(=O)N[C@@H](Cc1ccc(O)cc1)C(N)=O)[C@@H](C)O)C(C)C [Compound 207, N{alpha-4}-(3-methylbutanoyl)-N{epsilon-7}-[2-(2-{2-[2-(2-{2-[(4S)-4-carboxy-4-(17-carboxyheptadecanamido)butanamido]ethoxy}ethoxy)acetamido]ethoxy}ethoxy)acetamido]-[4A,6A,7K,9E,10A,13E,18Q,22V,28Y,30W,31L]hPYY (4-36)]"
2,10.5,"CC[C@H](C)[C@H](NC(=O)[C@H](CCCCNC(=O)COCCOCCNC(=O)COCCOCCNC(=O)CC[C@H](NC(=O)CCCCCCCCCCCCCCCCC(=O)O)C(=O)O)NC(=O)[C@H](CCC(=O)O)NC(=O)[C@@H]1CCCN1C(=O)[C@H](C)NC(=O)CC(C)C)C(=O)N[C@@H](CCC(=O)O)C(=O)N[C@@H](CCC(=O)O)C(=O)N[C@@H](CCC(=O)O)C(=O)N[C@@H](C)C(=O)N[C@@H](CO)C(=O)N1CCC[C@H]1C(=O)N[C@@H](CCC(=O)O)C(=O)N[C@@H](CCC(=O)O)C(=O)N[C@@H](CC(C)C)C(=O)N[C@@H](CCC(N)=O)C(=O)N[C@@H](CCCNC(=N)N)C(=O)N[C@@H](Cc1ccc(O)cc1)C(=O)N[C@@H](Cc1ccc(O)cc1)C(=O)N[C@H](C(=O)N[C@@H](CO)C(=O)N[C@@H](CC(C)C)C(=O)N[C@@H](CCCNC(=N)N)C(=O)N[C@@H](Cc1c[nH]cn1)C(=O)N[C@@H](Cc1ccc(O)cc1)C(=O)N[C@@H](Cc1ccc(O)cc1)C(=O)N[C@@H](CC(N)=O)C(=O)N[C@@H](Cc1c[nH]c2ccccc12)C(=O)N[C@@H](CC(C)C)C(=O)N[C@H](C(=O)N[C@@H](CCCNC(=N)N)C(=O)N[C@@H](CCC(N)=O)C(=O)N[C@@H](CCCNC(=N)N)C(=O)N[C@@H](Cc1ccc(O)cc1)C(N)=O)[C@@H](C)O)C(C)C [Compound 210, N{alpha-4}-(3-methylbutanoyl)-N{epsilon-7}-[2-(2-{2-[2-(2-{2-[(4S)-4-carboxy-4-(17-carboxyheptadecanamido)butanamido]ethoxy}ethoxy)acetamido]ethoxy}ethoxy)acetamido]-[4A,7K,8I,9E,11E,18Q,22V,28Y,30W,31L]hPYY (4-36)] (Isovaleryl-APEK([AEEA-AEEA-γGlu-C18 diacid])IEEEASPEELQRYYVSLRHYYNWLTRQRY-NH2)"
3,20.3,"CC(C)CC(=O)N[C@@H](C)C(=O)N1CCC[C@H]1C(=O)N[C@@H](CCC(=O)O)C(=O)N[C@@H](CCCCNC(=O)COCCOCCNC(=O)COCCOCCNC(=O)CC[C@H](NC(=O)CCCCCCCCCCCCCCCCC(=O)O)C(=O)O)C(=O)N1CCC[C@H]1C(=O)N[C@@H](CCC(=O)O)C(=O)N[C@@H](CCC(=O)O)C(=O)N[C@@H](CC(=O)O)C(=O)N[C@H](C(=O)N[C@@H](C)C(=O)N1CCC[C@H]1C(=O)N[C@@H](CCC(=O)O)C(=O)N[C@@H](CCC(=O)O)C(=O)N[C@@H](CC(C)C)C(=O)N[C@@H](CCC(N)=O)C(=O)N[C@@H](CCCNC(=N)N)C(=O)N[C@@H](Cc1ccc(O)cc1)C(=O)N[C@@H](Cc1ccc(O)cc1)C(=O)N[C@H](C(=O)N[C@@H](CO)C(=O)N[C@@H](CC(C)C)C(=O)N[C@@H](CCCNC(=N)N)C(=O)N[C@@H](Cc1c[nH]cn1)C(=O)N[C@@H](Cc1ccc(O)cc1)C(=O)N[C@@H](Cc1ccc(O)cc1)C(=O)N[C@@H](CC(N)=O)C(=O)N[C@@H](Cc1c[nH]c2ccccc12)C(=O)N[C@@H](CC(C)C)C(=O)N[C@H](C(=O)N[C@@H](CCCNC(=N)N)C(=O)N[C@@H](CCC(N)=O)C(=O)N[C@@H](CCCNC(=N)N)C(=O)N[C@@H](Cc1ccc(O)cc1)C(N)=O)[C@@H](C)O)C(C)C)[C@@H](C)O [Compound 212, N{alpha-4}-(3-methylbutanoyl)-N{epsilon-7}-[2-(2-{2-[2-(2-{2-[(4S)-4-carboxy-4-(17-carboxyheptadecanamido)butanamido]ethoxy}ethoxy)acetamido]ethoxy}ethoxy)acetamido]-[4A,7K,9E,12T,13A,18Q,22V,28Y,30W,31L]hPYY (4-36)]"
4,6.54,"CC(C)CC(=O)N[C@@H](C)C(=O)N1CCC[C@H]1C(=O)N[C@@H](CCC(=O)O)C(=O)N[C@@H](CCCCNC(=O)COCCOCCNC(=O)COCCOCCNC(=O)CC[C@H](NC(=O)CCCCCCCCCCCCCCCCC(=O)O)C(=O)O)C(=O)N1CCC[C@H]1C(=O)N[C@@H](CCC(=O)O)C(=O)N[C@@H](CCC(=O)O)C(=O)N[C@@H](CCC(=O)O)C(=O)N[C@H](C(=O)N[C@@H](CO)C(=O)N1CCC[C@H]1C(=O)N[C@@H](CCC(=O)O)C(=O)N[C@@H](CCC(=O)O)C(=O)N[C@@H](CC(C)C)C(=O)N[C@@H](CCC(N)=O)C(=O)N[C@@H](CCCNC(=N)N)C(=O)N[C@@H](Cc1ccc(O)cc1)C(=O)N[C@@H](Cc1ccc(O)cc1)C(=O)N[C@H](C(=O)N[C@@H](CO)C(=O)N[C@@H](CC(C)C)C(=O)N[C@@H](CCCNC(=N)N)C(=O)N[C@@H](Cc1c[nH]cn1)C(=O)N[C@@H](Cc1ccc(O)cc1)C(=O)N[C@@H](Cc1ccc(O)cc1)C(=O)N[C@@H](CC(N)=O)C(=O)N[C@@H](Cc1c[nH]c2ccccc12)C(=O)N[C@@H](CC(C)C)C(=O)N[C@H](C(=O)N[C@@H](CCCNC(=N)N)C(=O)N[C@@H](CCC(N)=O)C(=O)N[C@@H](CCCNC(=N)N)C(=O)N[C@@H](Cc1ccc(O)cc1)C(N)=O)[C@@H](C)O)C(C)C)[C@@H](C)O [Compound 213, N{alpha-4}-(3-methylbutanoyl)-N{epsilon-7}-[2-(2-{2-[2-(2-{2-[(4S)-4-carboxy-4-(17-carboxyheptadecanamido)butanamido]ethoxy}ethoxy)acetamido]ethoxy}ethoxy)acetamido]-[4A,7K,9E,11E,12T,18Q,22V,28Y,30W,31L]hPYY (4-36)] (Isovaleryl-APEK([AEEA-AEEA-γGlu-C18 diacid])PEEETSPEELQRYYVSLRHYYNWLTRQRY-NH2)"
5,0.48,"CC(C)CC(=O)N[C@@H](C)C(=O)N1CCC[C@H]1C(=O)N[C@@H](CCC(=O)O)C(=O)N[C@@H](CCCCNC(=O)COCCOCCNC(=O)COCCOCCNC(=O)CC[C@H](NC(=O)CCCCCCCCCCCCCCCCC(=O)O)C(=O)O)C(=O)N1CCC[C@H]1C(=O)N[C@@H](CCC(=O)O)C(=O)N[C@@H](CCC(=O)O)C(=O)N[C@@H](CC(=O)O)C(=O)N[C@@H](C)C(=O)N[C@@H](CO)C(=O)N1CCC[C@H]1C(=O)N[C@@H](C)C(=O)N[C@@H](CCC(=O)O)C(=O)N[C@@H](CC(C)C)C(=O)N[C@@H](CCC(N)=O)C(=O)N[C@@H](CCCNC(=N)N)C(=O)N[C@@H](Cc1ccc(O)cc1)C(=O)N[C@@H](Cc1ccc(O)cc1)C(=O)N[C@H](C(=O)N[C@@H](CCC(=O)O)C(=O)N[C@@H](CC(C)C)C(=O)N[C@@H](CCCNC(=N)N)C(=O)N[C@@H](Cc1c[nH]cn1)C(=O)N[C@@H](Cc1ccc(O)cc1)C(=O)N[C@@H](Cc1ccc(O)cc1)C(=O)N[C@@H](CC(N)=O)C(=O)N[C@@H](Cc1c[nH]c2ccccc12)C(=O)N[C@@H](CC(C)C)C(=O)N[C@H](C(=O)N[C@@H](CCCNC(=N)N)C(=O)N[C@@H](CCC(N)=O)C(=O)N[C@@H](CCCNC(=N)N)C(=O)N[C@@H](Cc1ccc(O)cc1)C(N)=O)[C@@H](C)O)C(C)C [Compound 215, N{alpha-4}-(3-methylbutanoyl)-N{epsilon-7}-[2-(2-{2-[2-(2-{2-[(4S)-4-carboxy-4-(17-carboxyheptadecanamido)butanamido]ethoxy}ethoxy)acetamido]ethoxy}ethoxy)acetamido]-[4A,7K,9E,15A,18Q,22V,23E,28Y,30W,31L]hPYY (4-36)]"
